# Data taken from PubChem BioAssay AID1919014 (Molecular Pharmacology Branch, DTP, NCI, 2023).
# System: NCI-H1341 complex spheroids, percent test/control
# Assay: Anticancer human tumor NCI-H1341 cell line growth inhibition [AhR];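 further: spheroids exposed to agents for seven days before readout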
# Settings: for IC50: curve of first compound; for viability, T/C: stronger effect = lower value
# Method in brief: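 Agents were dosed in half-log steps down from roughly clinical Cmax, or from 10 microM where Cmax was unknown, alone and with AhR antagonists. Read-out: percent test/control growth of tumor spheroids containing HUVEC and MSC stromal cells.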
smiles,measurement,setting,value
CCN(c1cc(-c2ccc(CN3CCOCC3)cc2)cc(C(=O)NCc2c(C)cc(C)[nH]c2=O)c1C)C1CCOCC1 + CC(CO)NC(=O)c1cc(-c2ccc(Cl)cc2)nn(-c2cnn(C)c2)c1=O,IC50,second compound 0.1 µM,> 3 µM
same,IC50,second compound 0.316 µM,> 3 µM
same,IC50,second compound 1 µM,> 3 µM
same,IC50,second compound 3.16 µM,> 3 µM
same,IC50,second compound 10 µM,> 3 µM
same,"viability, T/C","second compound 0.1 µM, first compound 0.00949 µM",89.1%
same,"viability, T/C","second compound 0.1 µM, first compound 0.03 µM",72.4%
same,"viability, T/C","second compound 0.1 µM, first compound 0.0949 µM",84%
same,"viability, T/C","second compound 0.1 µM, first compound 0.3 µM",68.1%
same,"viability, T/C","second compound 0.1 µM, first compound 0.949 µM",75.2%
same,"viability, T/C","second compound 0.1 µM, first compound 3 µM",57.6%
same,"viability, T/C","second compound 0.316 µM, first compound 0.00949 µM",81.9%
same,"viability, T/C","second compound 0.316 µM, first compound 0.03 µM",77%
same,"viability, T/C","second compound 0.316 µM, first compound 0.0949 µM",77.9%
same,"viability, T/C","second compound 0.316 µM, first compound 0.3 µM",65.8%
same,"viability, T/C","second compound 0.316 µM, first compound 0.949 µM",65.7%
same,"viability, T/C","second compound 0.316 µM, first compound 3 µM",59.7%
same,"viability, T/C","second compound 1 µM, first compound 0.00949 µM",91.7%
same,"viability, T/C","second compound 1 µM, first compound 0.03 µM",73.6%
same,"viability, T/C","second compound 1 µM, first compound 0.0949 µM",78%
same,"viability, T/C","second compound 1 µM, first compound 0.3 µM",63%
same,"viability, T/C","second compound 1 µM, first compound 0.949 µM",63.1%
same,"viability, T/C","second compound 1 µM, first compound 3 µM",62%
same,"viability, T/C","second compound 3.16 µM, first compound 0.00949 µM",84.1%
same,"viability, T/C","second compound 3.16 µM, first compound 0.03 µM",82.5%
same,"viability, T/C","second compound 3.16 µM, first compound 0.0949 µM",74.9%
same,"viability, T/C","second compound 3.16 µM, first compound 0.3 µM",71.4%
same,"viability, T/C","second compound 3.16 µM, first compound 0.949 µM",61.9%
same,"viability, T/C","second compound 3.16 µM, first compound 3 µM",62.4%
same,"viability, T/C","second compound 10 µM, first compound 0.00949 µM",67.5%
same,"viability, T/C","second compound 10 µM, first compound 0.03 µM",79.2%
same,"viability, T/C","second compound 10 µM, first compound 0.0949 µM",73.3%
same,"viability, T/C","second compound 10 µM, first compound 0.3 µM",70.4%
same,"viability, T/C","second compound 10 µM, first compound 0.949 µM",65.7%
same,"viability, T/C","second compound 10 µM, first compound 3 µM",57.4%
